Results on eleven molecules are retold here after ChEMBL document CHEMBL1201862, “PubChem BioAssay data set” (2004).

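48-hour exposure; five concentrations; linearly interpolated endpoints. GI50 = concentration required for 50% inhibition of growth.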 The source made the active and inactive calls. Rule as the data show it: active = GI50 up to about 1.1 µM and inactive = higher.

Test systems include SN12C; HCC 2998; T47D; OVCAR-3; HCT-15; 786-0; OVCAR-5; SNB-75; NCI-H460; A498; NCI-H522; OVCAR-8; COLO 205; UO-31; U-251; MDA-N; HOP-62; UACC-257; SK-MEL-5.
What all share (experiment): NCI tumour cell line growth inhibition, 48 h

Take `COc1cccc2c3cccc(OC)c3c3[nH]cnc3c12`: the GI50 with SN12C was 5.45 µM (inactive); in the test on HCC 2998 it was 3.46 µM (inactive); in the test on T47D it was 6.24 µM (inactive); with OVCAR-3 it was 13.9 µM (inactive); in the test on HCT-15 it was 1.76 µM; in the test with 786-0, 1.58 µM (inactive). The GI50 in the test with OVCAR-5 was 5.37 µM (inactive); in the test on SNB-75, 4.3 µM (inactive); in the test on NCI-H460 it was 1.72 µM (inactive); in the test on A498, 18.1 µM (inactive); in the test with NCI-H522 it was 1.55 µM (inactive); with OVCAR-8 it was 1.94 µM (inactive). Besides, the GI50 was 16.5 µM (inactive) in the test with COLO 205; 1.66 µM (inactive) in the test on UO-31; 1.67 µM (inactive) with U-251; 1.85 µM (inactive) in the test with MDA-N; 16.4 µM (inactive) with HOP-62; 17.7 µM (inactive) in the test with UACC-257.
Take `Cc1cn(CC2=NCCCN2)c(=O)[nH]c1=O`: the GI50 with SN12C was > 100 µM (inactive); with HCC 2998, > 100 µM (inactive); in the test on T47D, > 100 µM (inactive); in the test on HCT-15 it was above 100 µM; in the test on 786-0, > 100 µM (inactive); in the test on OVCAR-5, > 100 µM (inactive). The GI50 in the test on SNB-75, in the test with NCI-H460, with A498, in the test on NCI-H522, in the test with OVCAR-8 and in the test on COLO 205 was > 100 µM (inactive) in each case. Further, the GI50 with UO-31, with U-251, in the test with MDA-N, in the test on HOP-62, in the test with SK-MEL-5 and with UACC-257 was > 100 µM (inactive) throughout.
Consider `COc1cc(OC)c(C/C=C/c2ccccc2)cc1O`, for which the GI50 in the test with SN12C was 16 µM (inactive); in the test with HCC 2998, 16.3 µM (inactive); with T47D it was 10.6 µM (inactive); with OVCAR-3, 14.7 µM (inactive); in the test on HCT-15, 16.5 µM; with 786-0, 18.2 µM (inactive). For the same molecule, the GI50 is 26.6 µM (inactive) with OVCAR-5; 14.6 µM (inactive) in the test on SNB-75; 17.3 µM (inactive) in the test with NCI-H460; 14.8 µM (inactive) in the test on A498; 12.6 µM (inactive) in the test with NCI-H522; 16.1 µM (inactive) with OVCAR-8. The GI50 was 22 µM (inactive) in the test with COLO 205; 14.7 µM (inactive) in the test with UO-31; 16.7 µM (inactive) with U-251; 18.1 µM (inactive) in the test with MDA-N; 15.8 µM (inactive) in the test with SK-MEL-5; 23.6 µM (inactive) in the test on UACC-257.
Consider `N[C@@H](Cc1ccccc1)C(=O)N1CCC[C@@H]1P(=O)(Oc1ccccc1)Oc1ccccc1`, for which the GI50 in the test with SN12C is > 100 µM (inactive); in the test with HCC 2998, 39.3 µM (inactive); in the test with T47D, > 100 µM (inactive); with OVCAR-3, > 100 µM (inactive); in the test on HCT-15 it was above 100 µM; in the test on 786-0, > 100 µM (inactive). Also, the GI50 in the test with OVCAR-5, in the test on SNB-75, in the test with NCI-H460, in the test on A498, in the test on OVCAR-8 and in the test on COLO 205 was > 100 µM (inactive) each time. The GI50 with UO-31 was > 100 µM (inactive); in the test with U-251 it was > 100 µM (inactive); with MDA-N, > 100 µM (inactive); with HOP-62, > 100 µM (inactive); in the test with SK-MEL-5, 78.2 µM (inactive); with UACC-257, > 100 µM (inactive).
With `O=C1CSC2(CC(/C=C/c3cccs3)=NN2c2cccc(S(=O)(=O)O)c2)N1c1nc2ccccc2s1` (centres undefined), the GI50 in the test with SN12C is > 100 µM (inactive); in the test with HCC 2998 it was > 100 µM (inactive); in the test on T47D, 21 µM (inactive); in the test on HCT-15, above 100 µM; in the test on 786-0 it was 88.3 µM (inactive); with OVCAR-5, > 100 µM (inactive). The GI50 in the test with SNB-75 was > 100 µM (inactive); in the test on NCI-H460 it was 67.5 µM (inactive); in the test on A498, 15.6 µM (inactive); in the test on NCI-H522, 64.9 µM (inactive); in the test on OVCAR-8 it was > 100 µM (inactive); in the test on COLO 205 it was > 100 µM (inactive). In addition, the GI50 is 83.6 µM (inactive) with UO-31; 65.6 µM (inactive) in the test on U-251; > 100 µM (inactive) with MDA-N; > 100 µM (inactive) in the test with SK-MEL-5; > 100 µM (inactive) with UACC-257.
Regarding `COc1ccc(OC)c2c1ccc1c(C)c3ccccc3c(C)c12`, the GI50 with SN12C is 22.9 µM (inactive); with HCC 2998, 15.8 µM (inactive); in the test on T47D, > 100 µM (inactive); in the test on OVCAR-3, 95.3 µM (inactive); in the test on HCT-15, 18 µM; in the test with 786-0, > 100 µM (inactive). The GI50 is > 100 µM (inactive) with OVCAR-5; > 100 µM (inactive) in the test with SNB-75; 71.9 µM (inactive) in the test on NCI-H460; 61 µM (inactive) with A498; 75.9 µM (inactive) in the test with NCI-H522; > 100 µM (inactive) in the test on OVCAR-8. Moreover, the GI50 is 82.2 µM (inactive) with UO-31; > 100 µM (inactive) with U-251; 79.1 µM (inactive) with MDA-N; 86.5 µM (inactive) with HOP-62; > 100 µM (inactive) in the test on UACC-257.
With `CC(C)(C)OC(=O)NC1CCCC1C(=O)C1=CCCC1` (centres undefined), the GI50 was 53.3 µM (inactive) with SN12C; 88.7 µM (inactive) in the test on HCC 2998; 28.6 µM (inactive) in the test on T47D; > 100 µM (inactive) in the test on OVCAR-3; 59 µM with HCT-15; > 100 µM (inactive) in the test on 786-0. The GI50 is > 100 µM (inactive) with OVCAR-5; 72.9 µM (inactive) in the test with SNB-75; > 100 µM (inactive) in the test on NCI-H460; > 100 µM (inactive) with A498; > 100 µM (inactive) in the test with OVCAR-8; > 100 µM (inactive) in the test with COLO 205. Also, the GI50 with U-251 was > 100 µM (inactive); with MDA-N, 53 µM (inactive); in the test on HOP-62, > 100 µM (inactive); in the test on SK-MEL-5, 65 µM (inactive); in the test with UACC-257, > 100 µM (inactive).
With `O=c1[nH]c(-c2ccccc2)nc2c1sc1nc3ccccc3n12`, the GI50 with SN12C is > 100 µM (inactive); with HCC 2998, > 100 µM (inactive); in the test on T47D, > 100 µM (inactive); with OVCAR-3, > 100 µM (inactive); in the test on HCT-15, above 100 µM; in the test on 786-0 it was > 100 µM (inactive). Also, the GI50 was > 100 µM (inactive) with OVCAR-5; > 63.1 µM (inactive) with SNB-75; > 100 µM (inactive) in the test on NCI-H460; > 100 µM (inactive) in the test on A498; > 100 µM (inactive) in the test on NCI-H522; > 100 µM (inactive) in the test with OVCAR-8. For the same molecule, the GI50 with COLO 205 was > 100 µM (inactive); with UO-31, > 100 µM (inactive); in the test with U-251, > 87.7 µM (inactive); in the test with MDA-N, > 100 µM (inactive); in the test on SK-MEL-5 it was > 100 µM (inactive); with UACC-257 it was > 100 µM (inactive).
As to `COc1ccc(-n2nnc3c(C#N)c(C)c(-c4ccccc4)n3c2=O)cc1`, the GI50 in the test with SN12C was 4.34 µM (inactive); in the test on HCC 2998, 3.56 µM (inactive); in the test with T47D it was 1.76 µM (inactive); in the test with OVCAR-3, 1.16 µM (inactive); with HCT-15, 4.72 µM; in the test on 786-0, 1.94 µM (inactive). Besides, the GI50 with OVCAR-5 was 3.33 µM (inactive); in the test with SNB-75, 3.2 µM (inactive); in the test with NCI-H460, 3.65 µM (inactive); with A498, 3.45 µM (inactive); in the test with OVCAR-8 it was 4.92 µM (inactive); in the test with COLO 205, 2.93 µM (inactive). Besides, the GI50 was 4.33 µM (inactive) in the test on UO-31; 11.3 µM (inactive) in the test with U-251; 0.413 µM (active) in the test on MDA-N; 4.04 µM (inactive) with HOP-62; 2.81 µM (inactive) in the test with SK-MEL-5; > 47.4 µM (inactive) in the test on UACC-257.
For `COc1ccc(-c2cc(-c3ccc(Nc4ccnc5cc(C(F)(F)F)ccc45)cc3)[nH]c(=O)c2C#N)cc1`, the GI50 with SN12C is > 100 µM (inactive); with HCC 2998 it was > 100 µM (inactive); with T47D, 45.7 µM (inactive); in the test with OVCAR-3, > 100 µM (inactive); in the test on HCT-15, above 100 µM; in the test on 786-0 it was 14.1 µM (inactive). Besides, the GI50 is > 66.5 µM (inactive) in the test on OVCAR-5; 8.24 µM (inactive) in the test on SNB-75; > 100 µM (inactive) in the test with NCI-H460; > 40 µM (inactive) in the test with A498; > 100 µM (inactive) with NCI-H522; > 77.4 µM (inactive) with OVCAR-8. For the same molecule, the GI50 was > 39.4 µM (inactive) in the test with COLO 205; 9.57 µM (inactive) with U-251; > 34.5 µM (inactive) in the test on MDA-N; 99.8 µM (inactive) in the test on SK-MEL-5; > 100 µM (inactive) in the test on UACC-257.
For `O=[N+]([O-])c1ccc(C(c2c[nH]c3ccccc23)c2c[nH]c3ccccc23)cc1`, the GI50 is 14.4 µM (inactive) with SN12C; 13.2 µM (inactive) in the test with HCC 2998; 0.653 µM (active) in the test on T47D; 1.94 µM (inactive) in the test on OVCAR-3; 11 µM with HCT-15; 14.3 µM (inactive) with 786-0. For the same molecule, the GI50 is 23.6 µM (inactive) in the test with OVCAR-5; 4.8 µM (inactive) in the test on SNB-75; 3.57 µM (inactive) in the test with NCI-H460; 16.1 µM (inactive) in the test with A498; 14.7 µM (inactive) in the test on OVCAR-8; 8.13 µM (inactive) in the test with COLO 205. The GI50 in the test with UO-31 is 10.9 µM (inactive); in the test on U-251, 11.8 µM (inactive); in the test on MDA-N, 11.6 µM (inactive); with HOP-62 it was 13.5 µM (inactive); with SK-MEL-5 it was 5.97 µM (inactive); in the test on UACC-257, 3.03 µM (inactive).
